Assay results as given in US8097640B2, “Prophylactic or therapeutic agent for diabetic maculopathy” (Sanwa Kagaku Kenkyusho Co., Ltd., priority 2004, dated 2012).
Where “and” joins values, the source holds several entries; their conditions need not be identical. Equal values may be shown once.

Tests used:
[1] = tested on: edema in the macular central fovea of diabetic monkeys; assay: Monkey Test: thickness and volume of macular central fovea (OCT) after ischemia/reperfusion in STZ diabetic monkeys; format: in vivo, Macaca fascicularis
Protocol: Diabetes mellitus was induced in male monkeys (Macaca fascicularis) (3-year-old) weighing about 2.1 to 2.4 kg by intravenously injecting STZ into their foreleg vein at the dose of 80 mg/kg. Two days after the treatment with STZ, blood glucose level was measured, and monkeys with at least 200 mg/dl glucose were then used in the experiment as diabetic monkeys. Insulin was administered subcutaneously once or twice per day into monkeys showing a blood glucose level of 300 mg/dl. The set groups were the following 3 groups, and from 2 weeks after the treatment with STZ, 5% gum arabic solution or SNK-860 solution was orally administered once a day. • (1) Normal control group (4 monkeys): Given 5% gum arabic solution in a ratio of 5 ml/kg. • (2) Diabetic control group (6 monkeys): Given 5% gum arabic solution in a ratio of 5 ml/kg. • (3) Diabetic group given 32 mg/kg SNK-860 (4 monkeys): Given a suspension of SNK-860 (32 mg/5 ml) in 5% gum arabic solution in a ratio of 5 ml/kg.
After administration for 2 weeks, intraocular ischemic treatment was carried out as described below, and after the treatment was finished, the animals were maintained as usual for 7 days. Before the ischemic treatment and 7 days after treatment, the thickness and volume of the macular central fovea (in the diameter range of 1 mm from the center of the macula lutea) were measured by an OCT scanner (Stratus OCT, Carl Zeiss). Administration of the pharmacological agent was also conducted for the period (7 days) of reperfusion after the ischemic treatment.
Retinal ischemia produced by increasing intraocular pressure was in accordance with Efficacy Pharmaceutical Test Example 1. However, the size of the needle used was 25 G×½ (Terumo). After a mydriatic (Mydrin P manufactured by Santen Pharmaceutical) was dropped onto the right eye, the monkey was anesthetized by intramuscularly administering ketaral (Sankyo Life Tech). Subsequently, a local anesthetic (Benoxyl eye drop 0.4%) was dropped onto the eye, and the monkey was prevented from blinking with an eyelid speculum. Anesthesia with ketaral was additionally carried out when necessary.
The thickness and volume of the macular central fovea were measured in the following manner. After a mydriatic (Mydrin P) was dropped onto the right eye of the monkey to dilate the pupil of the eye sufficiently, the monkey was anesthetized by intramuscularly administering Ketaral. Thereafter, the monkey was allowed to sit on a monkey chair and the head was fixed. […] On the basis of the resulting cross-sectional macular image, the thickness and volume of the macular central fovea were analyzed.

[2] = tested on: patients with diabetic macular edema; assay: Clinical Results: macula lutea thickness (OCT), corrected visual acuity and safety in patients with diabetic macular edema; format: in vivo, humans
Protocol: Among patients with diabetic maculopathy, 10 patients with diabetic macular edema having a retinal thickening or a hard exudates in a posterior pole of the retina were subjects. SNK-860 was orally administered in a dose of 30 mg (2 tablets each containing 15 mg SNK-860) once a day before breakfast for 8 weeks. During this test period, simultaneous use of eparlestat, intravitreal injection and sub-Tenon injection of an adrenal cortical hormone, and photocoagulation and vitrectomy were prohibited. Basic therapy of diabetes mellitus was carried out so as to give good blood glucose control throughout the test period.
Evaluation was carried out in terms of the thickness of the macular central fovea (in the diameter range of 1 mm from the center of macula lutea) and the thickness at the center of the central fovea measured by optical coherence tomography (OCT, Carl Zeiss), as well as corrected visual acuity (Log MAR).
Log MAR (Log Minimum Angle of Resolution) is one kind of logarithmic visual acuity, which is visual acuity expressed in logarithmic minimum angle of resolution. Decimal visual acuity 1.0 used frequently in Japan is 0.0 in terms of Log MAR, and decimal visual acuity 0.1 is 1.0 in Log MAR. A log MAR visual acuity of 0.1 to 0.5 corresponds to a decimal visual acuity of 0.8 to 0.32.

[3] = tested on: edema in a retinal visual cell layer of diabetic rats; assay: Rat Test 2: edema in retinal visual cell layer after intraocular ischemia/reperfusion in STZ diabetic rats; format: in vivo
Protocol: The test was carried out in accordance with Efficacy Pharmacological Test Example 1. The set groups were the following 4 groups, and from 2 weeks after the treatment with STZ, 5% gum arabic solution or SNK-860 solution was orally administered once a day. • (1) Normal control group (10 rats): Given 5% gum arabic solution in a ratio of 5 ml/kg. • (2) Diabetic control group (9 rats): Given 5% gum arabic solution in a ratio of 5 ml/kg. • (3) Diabetic group given 2 mg/kg SNK-860 (10 rats): Given a suspension of SNK-860 (2 mg/5 ml) in 5% gum arabic solution in a ratio of 5 ml/kg. • (4) Diabetic group given 32 mg/kg SNK-860 (9 rats): Given a suspension of SNK-860 (32 mg/5 ml) in 5% gum arabic solution in a ratio of 5 ml/kg. Retinal ischemia produced by increasing the intraocular pressure was in accordance with Efficacy Pharmaceutical Test Example 1. Histological evaluation was also in accordance with Efficacy Pharmaceutical Test Example 1.

[4] = tested on: nuclei in the inner retinal layer (ganglion cell layer) of diabetic rats; assay: Rat Test 1: loss of nuclei from ganglion cells after ischemia/reperfusion in STZ diabetic rats; format: in vivo, Sprague Dawley rats; conditions: 32 mg/kg oral once a day, 4 rats
Protocol: (§1) Diabetes mellitus was induced in male Sprague Dawley rats (8-week-old) weighing about 250 g by injecting streptozotocin (STZ manufactured by Sigma) intravenously into their tail at the dose of 60 mg/kg. One week after the treatment with STZ, serum glucose was measured, and rats with at least 300 mg/dl glucose were then used in the experiment as diabetic rats. The set groups were the following 3 groups, and after 2 weeks after the treatment with STZ, 5% gum arabic solution or SNK-860 solution was orally administered once a day. • (1) Normal control group (5 rats): Given 5% gum arabic solution in a ratio of 5 ml/kg. • (2) Diabetic control group (7 rats): Given 5% gum arabic solution in a ratio of 5 ml/kg. • (3) Diabetic group given 32 mg/kg SNK-860 (4 rats): Given a suspension of SNK-860 (32 mg/5 ml) in 5% gum arabic solution in a ratio of 5 ml/kg.
(§2) After administration for 2 weeks, intraocular ischemia was caused by the treatment described below. After the treatment was finished, the animals were maintained as usual for 2 days, and thereafter, the eyeballs were excised and histologically evaluated. Administration of the pharmacological agent was also conducted for a period (2 days) of reperfusion after ischemic treatment. […]
(§3) In each of the resulting retinal images, the thickness of the visual cell layer was measured. […]

[5] = tested on: edema in a retinal visual cell layer of diabetic rats; assay: Rat Test 1: edema in retinal visual cell layer after intraocular ischemia/reperfusion in STZ diabetic rats; format: in vivo, Sprague Dawley rats; conditions: 32 mg/kg oral once a day, 2 weeks plus 2 days reperfusion
Protocol: as §1, §2, §3

[6] = 32 mg/kg oral once a day for 2 weeks, before ischemia
[7] = 32 mg/kg oral once a day, 7 days after ischemia
[8] = 30 mg oral once a day for 8 weeks, 12 eyes, mean ± standard deviation
[9] = 30 mg oral once a day for 8 weeks, out of 12 eyes
[10] = baseline before administration, 12 eyes in 10 cases, mean ± standard deviation

## NC(=O)[C@@H]1C[C@]2(NC(=O)NC2=O)c2cc(F)ccc2O1 [SNK-860, (2S,4S)-6-Fluoro-2′,5′-dioxospiro[chroman-4,4′-imidazolidine]-2-carboxamide]
[1]; 32 mg/kg oral once a day
  formation of edema in macular central fovea: formation of edema or its change was not observed
[1]; [6]
  Average macula lutea thickness, Before ischemia: 157 ± 6 μm
  Average macula lutea volume, Before ischemia: 0.123 ± 0.005 mm^3
[1]; [7]
  Average macula lutea thickness, 7 days after ischemia: 158 ± 2 μm
  Average macula lutea volume, 7 days after ischemia: 0.124 ± 0.001 mm^3
[2]; [8]
  Corrected visual acuity, Week 8: 0.24 Log MAR and 0.24 ± 0.20 Log MAR
  Macula lutea thickness, Center of central fovea, Week 8: 298.7 μm and 298.7 ± 90.6 μm
  Macula lutea thickness, Central fovea (diameter: 1 mm), Week 8: 300.4 μm and 300.4 ± 74.4 μm
[2]; [9]
  Corrected visual acuity (eye number), 1-stage deterioration: 1 eyes
  Corrected visual acuity (eye number), 1-stage improvement: 2 eyes
  Corrected visual acuity (eye number), 2-stage improvement: 3 eyes
  Corrected visual acuity (eye number), Unchanged: 6 eyes
[2]; 30 mg oral once a day for 8 weeks, patients
  side effects (safety): no particularly problematic side effects were recognized
[2]; [10]
  Macula lutea thickness, Center of central fovea, When initiated: 323.1 μm and 323.1 ± 111.4 μm
  Macula lutea thickness, Central fovea (diameter: 1 mm), When initiated: 324.3 μm and 324.3 ± 87.7 μm
[2]; baseline before administration, 12 eyes, mean ± standard deviation
  Corrected visual acuity, When initiated: 0.30 Log MAR and 0.30 ± 0.22 Log MAR
[3]; 2 mg/kg oral once a day
  inhibitory action on edema in visual cell layer: no inhibitory action on edema was observed
[3]; 32 mg/kg oral once a day
  inhibitory action on edema in visual cell layer: an evident inhibitory action on edema was observed
[4]
  loss of nuclei from ganglion cells: loss of nuclei was not observed in all 4 rats
[5]
  edema / thickness of the visual cell layer (ischemic/re-perfused eye vs untreated eye): no edema was observed
